Assay results from patent US8747901B2 (Reata Pharmaceuticals, Inc., priority 2009, dated 2014).

Details: human, in vivo
Method: The synthetic triterpenoid bardoxolone methyl, also known as CDDO-Me and as “RTA 402,” has shown potent anti-inflammatory and anti-tumor properties in preclinical studies and in human clinical trials. […] In these studies bardoxolone methyl was administered orally in a crystalline form (“Form A”), once daily, at a variety of doses.

oral bioavailability: relatively low oral bioavailability
SMILES: COC(=O)[C@]12CCC(C)(C)C[C@H]1[C@H]1C(=O)C=C3[C@@]4(C)C=C(C#N)C(=O)C(C)(C)[C@@H]4CC[C@@]3(C)[C@]1(C)CC2 [Form A bardoxolone methyl, bardoxolone methyl]
tolerability profile (po): excellent tolerability profile with very few drug-related side effects
